Key:
[1] = target: hSTING(R232) (Homo sapiens, UniProt Q86WV6, H232R); experiment: Luciferase reporter assay in HEK293T-hSTING-Luciferase cells, R232 (wild type) human STING; assay type: cell-based; details: 20 hr stimulation, read-out: R232 human activity (EC50 range)
How it was run: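 Clonal HEK293T cells stably expressing STING from a pUNO-1 plasmid plus an ISRE/ISG54-driven secreted luciferase reporter; 5×10^5 cells stimulated with compound for 20 hr. Supernatant luciferase read by luminescence, giving fold-induction over baseline and EC50.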

[2] = target: hSTING(H232) (Homo sapiens, UniProt Q86WV6); experiment: Luciferase reporter assay in HEK293T-hSTING-Luciferase cells, H232/REF polymorph; assay type: cell-based; details: H232/REF polymorph of human STING, EC50 range class
From the text: (§1) Stable Cell Line Generation • a) Stable STING expressing cells—Stable HEK293T STING-expressing cell lines were generated using plasmids purchased from Invivogen, CA, USA, that contain STING cDNA cloned into the pUNO-1 vector under hEF1-HTLV promoter and containing the Blasticidin selection cassette. The plasmids hSTING(R232), hSTING(H232), hSTING(HAQ) were directly procured from Invivogen while hSTING (AQ) and hSTING (Q) were derived from hSTING(HAQ) and hSTING (R232) plasmids respectively by using a PCR based site directed mutagenesis method. These vectors were individually transfected into HEK293T cells using Lipofectamine (Invitrogen) and transfected cells were selected under Blasticidin selection. These transfected cells were further subjected to clonal selection using the limiting dilution method to obtain clonally pure populations of HEK cells transfected with each of the above mentioned human STING variants. Only those clones were selected in which ligand independent activation of STING was minimal. • b) Stable Luciferase reporter gene expressing cells—Stable HEK293T Luciferase reporter gene expressing cell lines were generated using pCDNA4 plasmids under an IRF-inducible promoter. This promoter is comprised of five tandem interferon-stimulated response elements (ISRE) fused to an ISG54 minimal promoter. This vector was transfected into HEK293T cells using Lipofectamine (Invitrogen) and transfected cells were selected under Zeocin selection. These transfected cells were further subjected to clonal selection using the limiting dilution method to obtain clonally pure populations of HEK cells transfected the Luciferase reporter construct. Only those clones were selected in which ligand independent induction of luciferase was minimal.
(§2) 5×10^5 clonally selected HEK293T-hSTING-Luciferase cells were seeded in 384-well plates in growth medium and stimulated with novel compounds. After 20 hr of stimulation supernatant were removed and secretary reporter gene activity were measured using the Quanti-Luc detection system (Invivogen) on a Spectramax i3X luminometer.
(§3) In the tables below, EC50 value ranges for exemplary compounds are given.
(§4) Single nucleotide polymorphisms of human STING have been described, which can affect the functional potency of compounds that modulate the activity of the STING protein (see Yi et. al., PLoS One, October 2013, 8(10), e77846). The 5 major polymorphisms of human STING are shown in FIG. 1, with their prevalence in human populations indicated.
(§5) The tables below show the potency of selected compounds of the invention against the most common polymorphisms.

[3] = system: NF-κB pathway; experiment: Reporter gene expression assay in THP1-Dual cells, NFkB axis (secreted SEAP); assay type: cell-based, human; details: Homo sapiens, 20 hr stimulation, EC50 range class, read-out: THP-NFκB activity
Method: (§6) THP1-Dual™ cells (Invivogen) were derived from the human THP-1 monocyte cell line by stable integration of two inducible reporter constructs. As a result, THP1-Dual™ cells allow the simultaneous study of the NF-κB pathway, by monitoring the activity of secreted SEAP, and the IRF pathway, by assessing the activity of a secreted luciferase (Lucia). 5×10^5 THP1-Dual™ cells were seeded in 384-well plates in growth medium and stimulated with novel compounds. After 20 hr of stimulation supernatants were removed and reporter proteins were readily measured in the cell culture supernatant using QUANTI-Blue™ (Invivogen), a SEAP detection reagent, and QUANTI-Luc™ (Invivogen), a luciferase detection reagent on a Spectramax i3X luminometer.
(§7) EC50 value ranges for exemplary compounds tested in the above assay are given.

[4] = system: IRF pathway; experiment: Reporter gene expression assay in THP1-Dual cells, IRF axis (secreted Lucia luciferase); assay type: cell-based, human; details: Homo sapiens, 20 hr stimulation, EC50 range class, read-out: THP-IRF activity
Method: as §6, §7

[5] = target: hSTING(HAQ) (Homo sapiens, UniProt Q86WV6, G230A/H232R/R293Q/R71H); experiment: Luciferase reporter assay in HEK293T-hSTING-Luciferase cells, HAQ polymorph; assay type: cell-based; details: HAQ polymorph of human STING, EC50 range class
From the text: as §1, §2, §3, §4, §5

[6] = target: cynomolgus monkey STING protein (Macaca fascicularis, UniProt A0A2R3XZA6); experiment: Luciferase reporter assay, cynomolgus monkey STING overexpressed in HEK293T cells; assay type: cell-based; details: cynomolgus monkey STING overexpressed in HEK293T cells; read-out: Cynomolgus monkey STING activity (EC50 range)
Method: as §2, §3
Selected compounds were further tested against cynomolgus monkey STING protein overexpressed in HEK293T cells.

hSTING(H232), sequence (Q86WV6 whole entry): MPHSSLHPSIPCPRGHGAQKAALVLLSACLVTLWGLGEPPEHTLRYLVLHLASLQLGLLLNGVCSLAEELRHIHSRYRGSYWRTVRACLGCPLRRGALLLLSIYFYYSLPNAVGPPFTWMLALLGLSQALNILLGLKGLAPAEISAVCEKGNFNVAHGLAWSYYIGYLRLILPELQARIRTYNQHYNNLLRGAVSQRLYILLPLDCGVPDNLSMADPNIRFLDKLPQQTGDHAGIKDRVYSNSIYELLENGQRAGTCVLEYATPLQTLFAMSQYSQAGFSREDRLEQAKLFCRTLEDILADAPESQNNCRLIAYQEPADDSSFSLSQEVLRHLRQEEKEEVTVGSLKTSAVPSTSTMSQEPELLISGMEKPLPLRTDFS
hSTING(HAQ), sequence (Q86WV6 whole entry R71H/G230A/H232R/R293Q): as the sequence (Q86WV6 whole entry) above, with R71H, G230A, H232R, R293Q counted along it
cynomolgus monkey STING protein, sequence (A0A2R3XZA6 entry or part of it): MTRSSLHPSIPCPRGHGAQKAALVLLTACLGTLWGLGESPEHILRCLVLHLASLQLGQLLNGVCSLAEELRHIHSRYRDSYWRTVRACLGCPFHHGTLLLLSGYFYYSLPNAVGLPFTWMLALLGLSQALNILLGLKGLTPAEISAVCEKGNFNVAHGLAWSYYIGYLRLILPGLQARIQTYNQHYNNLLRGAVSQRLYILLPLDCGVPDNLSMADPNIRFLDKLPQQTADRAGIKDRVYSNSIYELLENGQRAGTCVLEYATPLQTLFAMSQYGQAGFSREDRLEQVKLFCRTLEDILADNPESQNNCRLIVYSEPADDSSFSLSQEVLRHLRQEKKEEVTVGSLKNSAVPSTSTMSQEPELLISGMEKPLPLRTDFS
hSTING(R232), sequence (Q86WV6 whole entry H232R): as the sequence (Q86WV6 whole entry) above, with H232R counted along it

SMILES | EC50 [1] [µM] | EC50 [2] [µM] | EC50 [3] [µM] | EC50 [4] [µM] | EC50 [5] [µM] | EC50 [6] [µM]
COC(=O)c1ccc(F)c(CN2C(=O)N(C)[C@@H](C)c3ccc(C(=O)NCc4c(F)cc(F)cc4F)cc32)c1Cl [Example 185, (S)-methyl 2-chloro-3-((3,4-dimethyl-2-oxo-7-((2,4,6-trifluorobenzyl)carbamoyl)-3,4-dihydroquinazolin-1(2H)-yl)methyl)-4-fluorobenzoate] | < 1 | < 1 | 1 to 10 | 1 to 10 | < 1 | –
Cc1cccc(-c2nc(CN3C(=O)N(C)Cc4ccc(C(=O)NCc5c(F)cc(F)cc5F)cc43)c(C)o2)c1 [Example 38, 3-methyl-1-((5-methyl-2-(m-tolyl)oxazol-4-yl)methyl)-2-oxo-N-(2,4,6-trifluorobenzyl)-1,2,3,4-tetrahydroquinazoline-7-carboxamide] | < 1 | 1 to 10 | 1 to 10 | > 10 | 1 to 10 | –
CC1c2ccc(C(=O)NCc3c(F)cc(F)cc3F)cc2N(Cc2c(F)cccc2Br)C(=O)N1C (stereo not drawn) [Example 193, 1-(2-bromo-6-fluorobenzyl)-3,4-dimethyl-2-oxo-N-(2,4,6-trifluorobenzyl)-1,2,3,4-tetrahydroquinazoline-7-carboxamide] | – | < 1 | < 1 | < 1 | < 1 | –
CC(=O)Nc1ccc(COC(=O)Oc2ccc(F)c(CN3C(=O)N(C)[C@@H](C)c4ccc(C(=O)NCc5c(F)cc(F)cc5F)cc43)c2Cl)cc1 [Example 139, (S)-4-Acetamidobenzyl-(2-chloro-3-((3,4-dimethyl-2-oxo-7-((2,4,6-trifluorobenzyl)carbamoyl)-3,4-dihydroquinazolin-1(2H)-yl)methyl)-4-fluorophenyl) carbonate] | < 1 | – | – | – | – | < 1
C[C@H]1c2ccc(C(=O)NCc3c(F)cc(F)cc3F)cc2N(Cc2c(F)ccc(OP(=O)(O)O)c2F)C(=O)N1C [Example 102, (S)-3-((3,4-dimethyl-2-oxo-7-((2,4,6-trifluorobenzyl)carbamoyl)-3,4-dihydroquinazolin-1(2H)-yl)methyl)-2,4-difluorophenyl dihydrogen phosphate] | < 1 | – | – | – | – | < 1
C[C@H]1c2ccc(C(=O)NCc3c(F)cc(F)cc3F)cc2N(Cc2c(O)cc(F)cc2F)C(=O)N1C [Example 260, (S)-1-(2,4-difluoro-6-hydroxybenzyl)-3,4-dimethyl-2-oxo-N-(2,4,6-trifluorobenzyl)-1,2,3,4-tetrahydroquinazoline-7-carboxamide] | < 1 | – | – | – | – | < 1
COc1cc(F)c(CN2C(=O)N(C)[C@@H](C)c3ccc(C(=O)NCc4c(F)cc(F)cc4F)cc32)cc1OC [Example 265, (S)-1-(2-fluoro-4,5-dimethoxybenzyl)-3,4-dimethyl-2-oxo-N-(2,4,6-trifluorobenzyl)-1,2,3,4-tetrahydroquinazoline-7-carboxamide] | < 1 | – | – | – | – | < 1
C[C@H]1c2ccc(C(=O)NCc3c(F)cc(F)cc3F)cc2N(Cc2c(F)cc(OCOP(=O)(O)O)cc2F)C(=O)N1C [Example 83, (S)-(4-((3,4-dimethyl-2-oxo-7-((2,4,6-trifluorobenzyl)carbamoyl)-3,4-dihydroquinazolin-1(2H)-yl)methyl)-3,5-difluorophenoxy)methyl dihydrogen phosphate] | < 1 | – | – | – | – | < 1
COc1cc(F)c(F)c(CN2C(=O)N(C)[C@@H](C)c3ccc(C(=O)NCc4c(F)cc(F)cc4F)cc32)c1 [Example 270, (S)-1-(2,3-difluoro-5-methoxybenzyl)-3,4-dimethyl-2-oxo-N-(2,4,6-trifluorobenzyl)-1,2,3,4-tetrahydroquinazoline-7-carboxamide] | < 1 | – | – | – | – | < 1
C[C@H]1c2ccc(C(=O)NCc3c(F)cc(F)cc3F)cc2N(Cc2c(F)cncc2F)C(=O)N1C [Example 295, (S)-1-((3,5-difluoropyridin-4-yl)methyl)-3,4-dimethyl-2-oxo-N-(2,4,6-trifluroobenzyl)-1,2,3,4-tetrahydroquinazoline-7-carboxamide] | < 1 | – | – | – | – | < 1
C[C@H]1c2ccc(C(=O)NCc3c(F)cc(F)cc3F)cc2N(Cc2cc(OCCO)ccc2F)C(=O)N1C [Example 263, (S)-1-(2-fluoro-5-(2-hydroxyethoxy)benzyl)-3,4-dimethyl-2-oxo-N-(2,4,6-trifluorobenzyl)-1,2,3,4-tetrahydroquinazoline-7-carboxamide] | < 1 | – | – | – | – | 1 to 10

Results, then the compound that gave them:

EC50 [1] [µM] | EC50 [2] [µM] | EC50 [3] [µM] | EC50 [4] [µM] | EC50 [5] [µM] | EC50 [6] [µM] | SMILES
1 to 10 | 1 to 10 | > 10 | > 10 | 1 to 10 | – | CC1c2ccc(C(=O)NCc3c(F)cc(F)cc3F)cc2N(Cc2c(F)cccc2N(C)C)C(=O)N1C (stereo not drawn) [Example 175, 1-(2-(dimethylamino)-6-fluorobenzyl)-3,4-dimethyl-2-oxo-N-(2,4,6-trifluorobenzyl)-1,2,3,4-tetrahydroquinazoline-7-carboxamide]
1 to 10 | 1 to 10 | 1 to 10 | 1 to 10 | 1 to 10 | – | Cc1cc(CN2C(=O)N(C)Cc3ccc(C(=O)NCc4c(F)cc(F)cc4F)cc32)on1 [Example 54, 3-methyl-1-((3-methylisoxazol-5-yl)methyl)-2-oxo-N-(2,4,6-trifluorobenzyl)-1,2,3,4-tetrahydroquinazoline-7-carboxamide]
< 1 | < 1 | 1 to 10 | 1 to 10 | < 1 | – | CNc1cccc(F)c1CN1C(=O)N(C)C(C)c2ccc(C(=O)NCc3c(F)cc(F)cc3F)cc21 (stereo not drawn) [Example 174, 1-(2-fluoro-6-(methylamino)benzyl)-3,4-dimethyl-2-oxo-N-(2,4,6-trifluorobenzyl)-1,2,3,4-tetrahydroquinazoline-7-carboxamide]
< 1 | 1 to 10 | > 10 | > 10 | 1 to 10 | – | Cc1ccc(CNC(=O)c2ccc3c(c2)N(Cc2c(F)cccc2Cl)C(=O)N(C)C3C)o1 (stereo not drawn) [Example 212, 1-(2-chloro-6-fluorobenzyl)-3,4-dimethyl-N-((5-methylfuran-2-yl)methyl)-2-oxo-1,2,3,4-tetrahydroquinazoline-7-carboxamide]
< 1 | – | – | – | – | < 1 | Cc1cccc(CN2C(=O)N(C)C(C)c3ccc(C(=O)NCc4c(F)cc(F)cc4F)cc32)c1F (stereo not drawn) [Example 164, 1-(2-fluoro-3-methylbenzyl)-3,4-dimethyl-2-oxo-N-(2,4,6-trifluorobenzyl)-1,2,3,4-tetrahydroquinazoline-7-carboxamide]
< 1 | – | – | – | – | < 1 | COc1cc(F)c(CN2C(=O)N(C)[C@@H](C)c3ccc(C(=O)NCc4c(F)cc(F)cc4F)cc32)c(F)c1 [Example 79, (S)-1-(2,6-Difluoro-4-methoxybenzyl)-3,4-dimethyl-2-oxo-N-(2,4,6-trifluorobenzyl)-1,2,3,4-tetrahydroquinazoline-7-carboxamide]

Reference: patent US11571423B2, “Small molecule modulators of human sting” (Curadev Pharma Limited, priority 2017, dated 2023)
